Results reported in patent US20140213538A1, “LYSOPHOSPHATIDIC ACID RECEPTOR ANTAGONISTS” (InterMune, Inc., priority 2013, published 2014).

molecular target: T1, LPA/S1P GPCR of interest (Homo sapiens, UniProt Q92633); assay: Beta-Arrestin based assay (PathHunter); type: cell-based
T1 construct: host or cells: CHO
Description: CMV promoter based DNA constructs expressing a fusion of the LPA/S1P GPCR of interest and ProLink™ tag were used to transfect EA Parental™ CHO cells (DiscoverX, Fremont, Calif.) using a FuGENE® transfection kit (Roche). Beta-Arrestin based assays were conducted 24-48 hrs post transfection using PathHunter® assay kits (DiscoverX, Fremont, Calif.). Agonist and antagonist assays were performed in quadruplicate in white 384 well plates. End point luminescence data were plotted and fit to a 4 parameter logistic function to obtain IC50 values. For antagonist assays, an IC80 concentration of agonist (LPA) equal to 0.5 micromolar was used.

T1 sequence (Q92633 whole entry): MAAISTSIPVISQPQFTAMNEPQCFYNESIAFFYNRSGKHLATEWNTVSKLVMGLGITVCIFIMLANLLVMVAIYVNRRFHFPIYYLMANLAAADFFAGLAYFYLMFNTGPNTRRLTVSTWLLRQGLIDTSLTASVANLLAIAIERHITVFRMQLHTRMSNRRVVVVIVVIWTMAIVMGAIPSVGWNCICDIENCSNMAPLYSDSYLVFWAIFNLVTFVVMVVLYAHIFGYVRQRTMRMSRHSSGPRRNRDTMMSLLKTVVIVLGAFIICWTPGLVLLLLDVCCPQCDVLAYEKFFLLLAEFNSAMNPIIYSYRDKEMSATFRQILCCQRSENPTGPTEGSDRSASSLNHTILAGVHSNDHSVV

EC50 [nM] | Structure (SMILES)
50 to 500 | C[C@@H](OC(=O)Nc1c(-c2cc3sc(-c4ccc(C5(C(=O)O)CC5)s4)cc3s2)cnn1C)c1ccccc1 [IT272]
50 to 500 | COc1cc(C2(C(=O)O)CC2)ccc1-c1cc2sc(-c3nnn(C)c3NC(=O)O[C@H](C)c3ccccc3)cc2s1 [IT357]
50 to 500 | C[C@@H](OC(=O)Nc1c(-c2cc3sc(-c4ccc(C5(C(=O)O)CC5)c5ccccc45)cc3s2)nnn1C)c1ccccc1 [IT321]
50 to 500 | C[C@@H](OC(=O)Nc1c(-c2cc3sc(-c4cnc(C5(C(=O)O)CC5)s4)cc3s2)cnn1C)c1ccccc1 [IT249]
50 to 500 | COc1cc(C2(C(=O)O)CC2)c(F)cc1-c1cc2sc(-c3cnn(C)c3NC(=O)O[C@H](C)c3ccccc3)cc2s1 [IT411]
50 to 500 | C[C@@H](OC(=O)Nc1c(-c2cc3sc(-c4ccc(C5(C(=O)O)CC5)c(C(F)(F)F)c4)cc3s2)nnn1C)c1ccccc1 [IT380]
50 to 500 | Cc1cc(-c2cc3sc(-c4nnn(C)c4NC(=O)O[C@H](C)c4ccccc4)cc3s2)ccc1C1(C(=O)O)CC1 [IT324]
50 to 500 | C[C@@H](OC(=O)Nc1c(-c2cc3sc(-c4ccc(C5(C(=O)O)CC5)cc4C(F)(F)F)cc3s2)nnn1C)c1ccccc1 [IT299]
> 500 | C[C@@H](OC(=O)Nc1c(-c2cc3sc(-c4ccc(CC(=O)O)c5ccccc45)cc3s2)cnn1C)c1ccccc1 [IT319]
50 to 500 | C[C@@H](OC(=O)Nc1c(-c2cc3sc(-c4ccc5c(CC(=O)O)coc5c4)cc3s2)nnn1C)c1ccccc1 [IT369]
50 to 500 | C[C@@H](OC(=O)Nc1c(-c2cc3sc(-c4ccc(C5(C(=O)O)CC5)s4)cc3s2)nnn1C)c1ccccc1 [IT273]
> 500 | C[C@@H](OC(=O)Nc1c(-c2cc3sc(-c4ccc(-c5nnc(C6(C(=O)O)CC6)o5)cc4)cc3s2)nnn1C)c1ccccc1 [IT218]
> 500 | C[C@@H](OC(=O)Nc1c(-c2cc3sc(-c4ccc5scc(C6(C(=O)O)CC6)c5c4)cc3s2)cnn1C)c1ccccc1 [IT370]
> 500 | Cc1nsc(-c2cc3sc(-c4ccc(CC(=O)O)c5ccccc45)cc3s2)c1NC(=O)O[C@H](C)c1ccccc1 [IT317]
50 to 500 | C[C@@H](OC(=O)Nc1c(-c2cc3sc(-c4cc(F)c(CC(=O)O)cc4F)cc3s2)nnn1C)c1ccccc1 [IT328]
< 50 | Cc1cc(C2(C(=O)O)CC2)ccc1-c1cc2sc(-c3snc(C)c3NC(=O)O[C@H](C)c3ccccc3)cc2s1 [IT361]
> 500 | C[C@@H](OC(=O)Nc1c(-c2cc3sc(-c4ccc(CC(=O)O)cc4C(F)(F)F)cc3s2)nnn1C)c1ccccc1 [IT363]
50 to 500 | COc1cc(-c2cc3sc(-c4nnn(C)c4NC(=O)O[C@H](C)c4ccccc4)cc3s2)ccc1C1(C(=O)O)CC1 [IT330]
> 500 | C[C@@H](OC(=O)Nc1c(-c2cc3sc(-c4ccc5c(CC(=O)O)c[nH]c5c4)cc3s2)nnn1C)c1ccccc1 [IT378]
50 to 500 | C[C@@H](OC(=O)Nc1c(-c2cc3sc(-c4ccc(CC(=O)O)c(C(F)(F)F)c4)cc3s2)nnn1C)c1ccccc1 [IT223]
> 500 | C[C@@H](OC(=O)Nc1c(-c2cc3sc(-c4ccc5occ(C6(C(=O)O)CC6)c5c4)cc3s2)cnn1C)c1ccccc1 [IT334]
> 500 | C[C@@H](OC(=O)Nc1c(-c2cc3sc(-c4ccc(C5(C(=O)O)CC5)c5ccccc45)cc3s2)cnn1C)c1ccccc1 [IT320]

Second part, the compound before the results:

Structure (SMILES) | EC50 [nM]
Cn1ncc(C#Cc2cc3sc(C4(C(=O)O)CC4)cc3s2)c1N [IT113] | > 500
C[C@@H](OC(=O)Nc1c(-c2ccc(-c3ccc(OC(C)(C)C(=O)O)cc3)cc2)oc2ccccc12)c1ccccc1 [IT508] | 50 to 500
COc1cc(-c2cc3sc(-c4snc(C)c4NC(=O)O[C@H](C)c4ccccc4)cc3s2)cnc1C1(C(=O)O)CC1 [IT359] | 50 to 500
Cc1nsc(-c2cc3sc(-c4ccc(-c5nnc(CC(=O)O)s5)cc4)cc3s2)c1NC(=O)O[C@H](C)c1ccccc1 [IT213] | > 500
Cc1cc(CC(=O)O)c(F)cc1-c1cc2sc(-c3snc(C)c3NC(=O)O[C@H](C)c3ccccc3)cc2s1 [IT252] | > 500
C[C@@H](OC(=O)Nc1c(-c2ccc(-c3nnc(C4(C(=O)O)CC4)s3)cc2)nnn1C)c1ccccc1 [IT208] | > 500
Cc1cc(-c2cc3sc(-c4snc(C)c4NC(=O)O[C@H](C)c4ccccc4)cc3s2)c(F)cc1CC(=O)O [IT241] | > 500
C[C@@H](OC(=O)Nc1c(-c2cc3sc(-c4ccc5occ(CC(=O)O)c5c4)cc3s2)cnn1C)c1ccccc1 [IT332] | 50 to 500
COc1cc(C2(C(=O)O)CC2)ccc1-c1cc2sc(-c3snc(C)c3NC(=O)O[C@H](C)c3ccccc3)cc2s1 [IT360] | > 500
Cc1nsc(-c2ccc(-c3cnc(C4(C(=O)O)CC4)s3)cc2)c1NC(=O)O[C@H](C)c1ccccc1 [IT202] | 50 to 500
Cc1nsc(-c2cc3sc(-c4ccc(CC(=O)O)c(F)c4)cc3s2)c1NC(=O)O[C@H](C)c1ccccc1 [IT294] | 50 to 500
COc1cc(CC(=O)O)c(F)cc1-c1cc2sc(-c3snc(C)c3NC(=O)O[C@H](C)c3ccccc3)cc2s1 [IT382] | > 500
COc1cc(-c2cc3sc(-c4snc(C)c4NC(=O)O[C@H](C)c4ccccc4)cc3s2)ccc1C1(C(=O)O)CC1 [IT331] | 50 to 500
Cc1nsc(-c2cc3sc(-c4cc(Cl)c(CC(=O)O)cc4F)cc3s2)c1NC(=O)O[C@H](C)c1ccccc1 [IT205] | > 500
Cc1nsc(-c2cc3sc(-c4ccc(CC(=O)O)cc4Cl)cc3s2)c1NC(=O)O[C@H](C)c1ccccc1 [IT161] | > 500
Cc1nsc(-c2cc3sc(-c4ccc(C5(C(=O)O)CC5)c(C(F)(F)F)c4)cc3s2)c1NC(=O)O[C@H](C)c1ccccc1 [IT381] | 50 to 500
Cc1nsc(-c2cc3sc(-c4ccc5scc(C6(C(=O)O)CC6)c5c4)cc3s2)c1NC(=O)O[C@H](C)c1ccccc1 [IT373] | > 500
C[C@@H](OC(=O)Nc1[nH]ncc1C#Cc1cc2sc(C3(C(=O)O)CC3)cc2s1)c1ccccc1 [IT127] | > 500
C[C@@H](OC(=O)Nc1c(-c2cc3sc(-c4ccc(CC(=O)O)nc4)cc3s2)cnn1C)c1ccccc1 [IT214] | 50 to 500
Cc1nsc(-c2cc3sc(-c4cc(Cl)c(C5(C(=O)O)CC5)cc4F)cc3s2)c1NC(=O)O[C@H](C)c1ccccc1 [IT286] | 50 to 500
C[C@@H](OC(=O)Nc1c(-c2ccc(-c3cc(F)c(Oc4cc(F)ccc4C(=O)O)c(F)c3)cc2)nnn1C)c1ccccc1 [IT514] | < 50
Cc1nsc(-c2ccc(-c3ncc(C4(C(=O)O)CC4)s3)cc2)c1NC(=O)O[C@H](C)c1ccccc1 [IT210] | > 500

Structure (SMILES) | EC50 [nM]
C[C@@H](OC(=O)Nc1nn(C)cc1-c1ccc(-c2cc(F)c(Oc3ncccc3C(=O)O)c(F)c2)cc1)c1ccccc1 [IT472] | > 500
Cc1nsc(-c2cc3sc(-c4ccc(CC(=O)O)cc4C(F)(F)F)cc3s2)c1NC(=O)O[C@H](C)c1ccccc1 [IT337] | > 500
COc1cc(C2(C(=O)O)CC2)c(OC)cc1-c1cc2sc(-c3cnn(C)c3NC(=O)O[C@H](C)c3ccccc3)cc2s1 [IT414] | > 500
Cc1nsc(-c2cc3sc(-c4ccc5c(CC(=O)O)coc5c4)cc3s2)c1NC(=O)O[C@H](C)c1ccccc1 [IT290] | > 500
Cc1cc(-c2cc3sc(-c4snc(C)c4NC(=O)O[C@H](C)c4ccccc4)cc3s2)ccc1C1(C(=O)O)CC1 [IT325] | 50 to 500
C[C@@H](OC(=O)Nc1c(-c2cc3sc(-c4ccc(CC(=O)O)c(F)c4F)cc3s2)cnn1C)c1ccccc1 [IT211] | 50 to 500
Cc1noc(-c2ccc(-c3ccc(Oc4nnn(C)c4C(=O)O)cc3)cc2)c1NC(=O)O[C@H](C)c1ccccc1 [IT471] | 50 to 500
Cc1noc(-c2ccc(-c3ccc(Oc4c(C(=O)O)ncn4C)cc3)cc2)c1NC(=O)O[C@H](C)c1ccccc1 [IT444] | < 50
Cc1nsc(-c2cc3sc(-c4ccc(-c5nnc(C6(C(=O)O)CC6)s5)cc4)cc3s2)c1NC(=O)O[C@H](C)c1ccccc1 [IT289] | > 500
COc1cc(C2(C(=O)O)CC2)c(F)cc1-c1cc2sc(-c3snc(C)c3NC(=O)O[C@H](C)c3ccccc3)cc2s1 [IT412] | > 500
Cc1nsc(-c2cc3sc(-c4ccc(-c5nnc(CC(=O)O)o5)cc4)cc3s2)c1NC(=O)O[C@H](C)c1ccccc1 [IT207] | > 500
Cc1noc(-c2ccc(-c3ccc(OC(C)C(=O)O)cc3)cc2)c1NC(=O)O[C@H](C)c1ccccc1 (single isomer, unassigned) [IT238] | 50 to 500
Cc1nsc(-c2ccc3c(c2)CCCc2cc(CC(=O)O)ccc2-3)c1NC(=O)O[C@H](C)c1ccccc1 [IT225] | 50 to 500
C[C@@H](OC(=O)Nc1c(-c2ccc(C#CC(=O)N(C)CCC(=O)O)cc2)cnn1C)c1ccccc1 [IT466] | > 500
Cc1nsc(-c2cc3sc(-c4cc(F)c(CC(=O)O)cc4F)cc3s2)c1NC(=O)O[C@H](C)c1ccccc1 [IT326] | 50 to 500
Cc1nsc(-c2cc3sc(-c4ccc(C5(C(=O)O)CC5)cc4C(F)(F)F)cc3s2)c1NC(=O)O[C@H](C)c1ccccc1 [IT248] | > 500
Cc1cc(CC(=O)O)c(F)cc1-c1cc2sc(-c3cnn(C)c3NC(=O)O[C@H](C)c3ccccc3)cc2s1 [IT251] | 50 to 500
Cc1nsc(-c2ccc(-c3nnc(C4(C(=O)O)CC4)o3)cc2)c1NC(=O)O[C@H](C)c1ccccc1 [IT176] | > 500
CC(C)[C@@H](NC(=O)C#Cc1ccc(-c2cnn(C)c2NC(=O)O[C@H](C)c2ccccc2)cc1)C(=O)O [IT403] | > 500
Cc1noc(-c2ccc(-c3ccc(Oc4ccc(C(=O)O)s4)cc3)cc2)c1NC(=O)O[C@H](C)c1ccccc1 [IT409] | 50 to 500
C[C@@H](OC(=O)NC1=C(c2ccc(-c3cc(F)c(OC(C)(C)C(=O)O)c(F)c3)cc2)OC2C=CC=CC12)c1ccccc1 (stereo partly drawn) [IT501] | 50 to 500
Cc1nsc(-c2cc3sc(-c4ccc(C5(C(=O)O)CC5)c(Cl)c4)cc3s2)c1NC(=O)O[C@H](C)c1ccccc1 [IT267] | 50 to 500
